In article PMC7604503, “Cyclic peptides can engage a single binding pocket through highly divergent modes” (Proceedings of the National Academy of Sciences of the …, 2020):
Each block holds one compound with its values, some of them ahead of it. Where a SMILES comes first, the peptide text is derived from it. Bridges are numbered along the chain shown (N, C = ends).

Experiments:
BRD2-BD1 = biological target: T1, BRD2-BD1 (Homo sapiens, UniProt P25440); experiment: SPR binding of peptides to immobilised biotinylated BET bromodomain
T1 construct: human BRD2 (BD1: 65-194; BD2: 347-455); Avi tag (biotinylated); made in house; host or cells: E. coli BL21(DE3)
T1 sequence (P25440 65-194): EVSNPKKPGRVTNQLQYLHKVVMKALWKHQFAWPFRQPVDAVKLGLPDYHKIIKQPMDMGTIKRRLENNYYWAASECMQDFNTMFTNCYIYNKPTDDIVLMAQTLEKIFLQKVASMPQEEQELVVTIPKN
Description: (§1) We next assessed the ability of each of the three lead peptides to bind BRD3-BD1. […] To assess selectivity for other BET BDs, we used SPR to determine the binding affinity of each peptide toward the remaining BDs from BRD2, BRD3, and BRD4 (Fig. 1B). […]
(§2) Peptides were synthesised as C-terminal amides using standard fluorenylmethyloxycarbonyl (Fmoc)-strategy solid-phase chemistry using a Syro I automated synthesiser (Biotage) and NovaPEG Rink Amide resin (Novabiochem). Couplings were performed with HBTU/HOBt (1:1) and 6 equivalents of each amino acid. Double couplings were performed for arginine residues.
(§3) Following the final amino acid coupling reaction, the Fmoc group was removed and resin incubated with N-(chloroacetoxy)succinimide (0.2 M in DMF, 1 h, RT). Resin was washed with DMF (5 times) and DCM (5 times) and dried in vacuo.
(§4) Linear peptides were cleaved from the resin by incubation (3 h, RT) with a trifluoroacetic acid (TFA) cleavage cocktail (TFA/2,2’-(ethylenedioxy)diethanethiol/triisopropyl silane/H2O (92.5:2.5:2.5:2.5)) before filtration, concentration in vacuo and precipitation with ice-cold diethyl ether. Crude peptides were washed with diethyl ether (5 times), dried and resuspended in DMSO. The pH was raised to >8 using triethylamine to allow cyclisation. Following incubation (1 h, RT), peptides were re-acidified with TFA for purification.
(§5) Crude peptides were purified by reverse-phase high-performance liquid chromatography using a Chromolith Prep column (Merck) on a Prominence LC-20AP system (Shimadzu) (Solvent A: 0.1% TFA in H2O, Solvent B: 0.1% TFA in acetonitrile) to >95% purity as determined by mass spectrometry (Fig. S17). Purified peptides were reconstituted in DMSO and concentrations determined from their absorbance at 280 nm in 5% DMSO using predicted extinction coefficients.
(§6) Surface plasmon resonance (SPR)
(§7) Measurements were conducted on a T200 or S200 (GE Healthcare) and data analysed using the Biacore Insight Evaluation Software. Experiments were performed at 4 °C in single cycle kinetics mode. Biotinylated BET bromodomains were immobilised on a CAP chip (GE Healthcare) with a […]
(§8) pH 7.5 was used as the running buffer. […]

BRD3-BD1 = biological target: T2, BRD3-BD1 (Homo sapiens, UniProt Q15059); experiment: as above; conditions: for Kd: gray boxed value: no reproducible signals observed at the concentrations used
T2 construct: BRD3 (BD1: 25-147); Avi tag (biotinylated); made in house; host or cells: E. coli BL21(DE3)
T2 sequence (Q15059 25-147): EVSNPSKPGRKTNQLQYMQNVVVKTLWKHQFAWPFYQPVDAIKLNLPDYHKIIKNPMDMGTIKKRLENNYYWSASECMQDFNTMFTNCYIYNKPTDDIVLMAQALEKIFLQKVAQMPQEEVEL
Source text: as §1, §5, §6, §7, §8

BRD2-BD2 = biological target: T3, BRD2-BD2 (Homo sapiens, UniProt P25440); experiment: as above
T3 construct: human BRD2 (BD1: 65-194; BD2: 347-455); Avi tag (biotinylated); made in house; host or cells: E. coli BL21(DE3)
T3 sequence (P25440 347-455): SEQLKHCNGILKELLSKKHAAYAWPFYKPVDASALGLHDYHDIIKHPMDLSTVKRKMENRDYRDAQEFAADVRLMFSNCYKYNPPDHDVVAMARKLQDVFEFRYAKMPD
Source text: as §1, §5, §6, §7, §8

BRD3-BD2 = biological target: T4, BRD3-BD2 (Homo sapiens, UniProt Q15059); experiment: as above
T4 construct: Avi tag (biotinylated); made in house; host or cells: E. coli BL21(DE3)
T4 sequence (Q15059 307-419): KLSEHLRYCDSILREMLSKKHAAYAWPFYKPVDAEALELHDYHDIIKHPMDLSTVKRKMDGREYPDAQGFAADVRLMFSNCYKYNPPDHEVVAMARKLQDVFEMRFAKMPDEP
Description: as §1, §2, §3, §4, §5, §6, §7, §8

BRD4-BD2 = biological target: T5, BRD4-BD2 (Homo sapiens, UniProt O60885); experiment: as above
T5 construct: BRD4 (BD1: 42-168; BD2: 348-464); Avi tag (biotinylated); made in house; host or cells: E. coli BL21(DE3)
Description: as §1, §2, §3, §4, §5, §6, §7, §8

BRD4-BD1 = biological target: T6, BRD4-BD1 (Homo sapiens, UniProt O60885); experiment: as above
T6 construct: BRD4 (BD1: 42-168; BD2: 348-464); Avi tag (biotinylated); made in house; host or cells: E. coli Rosetta2(DE3)
Description: as §1, §2, §3, §4, §5, §6, §7, §8

[1] = tested on: BD2 domains (BRD2-BD2, BRD3-BD2, BRD4-BD2); experiment: SPR binding, stated for the BD2 domains together; design: species or system human
Description: Measurements were conducted on a T200 or S200 (GE Healthcare) and data analysed using the Biacore Insight Evaluation Software. Experiments were performed at 4 C in single cycle kinetics mode. Biotinylated BET bromodomains were immobilised on a CAP chip (GE Healthcare) with a
pH 7.5 was used as the running buffer. Between cycles the chip was regenerated following the

[2] = tested on: BD1 domains (BRD2-BD1, BRD3-BD1, BRD4-BD1); experiment: SPR binding, stated for the BD1 domains together; design: species or system human; conditions: for reduction of affinity relative to 3.1B: all three BD1 domains
Description: as §1, §2, §3, §4, §5, §6, §7, §8

[3] = gray boxed value: no reproducible signals observed at the concentrations used
[4] = 4 C, geometric mean and SD of two to five measurements

SMILES: CC[C@H](C)[C@@H]1NC(=O)[C@H](Cc2c[nH]c3ccccc23)NC(=O)[C@H]([C@@H](C)CC)NC(=O)[C@H](CCCNC(=N)N)NC(=O)[C@H]([C@@H](C)O)NC(=O)[C@H](CC(C)C)NC(=O)[C@H](CCCCNC(C)=O)NC(=O)[C@H]([C@@H](C)O)NC(=O)[C@H](Cc2c[nH]c3ccccc23)NC(=O)[C@H](CCCNC(=N)N)NC(=O)[C@H](CC(C)C)NC(=O)[C@H](Cc2ccc(O)cc2)NC(=O)[C@H]([C@@H](C)O)NC(=O)[C@H](Cc2c[nH]c3ccccc23)NC(=O)CSC[C@@H](C(N)=O)NC(=O)[C@H](CO)NC1=O [3.1A] ({CH2CO}-WTYLRWTK(Ac)LTRIWISC-NH2; thioether N-16)
interaction with BRD2-BD1 (in words) (BRD2-BD1): no observable interaction

SMILES: CC[C@H](C)[C@@H]1NC(=O)[C@H](C)NC(=O)[C@H](CCCCN)NC(=O)[C@H](CCCCNC(C)=O)NC(=O)[C@H](Cc2c[nH]c3ccccc23)NC(=O)CSC[C@@H](C(N)=O)NC(=O)[C@H]([C@@H](C)CC)NC(=O)[C@H](Cc2c[nH]cn2)NC(=O)[C@H](CC(C)C)NC(=O)[C@H]([C@@H](C)O)NC(=O)[C@H](CCCCN)NC(=O)[C@H](CC(C)C)NC(=O)[C@H]([C@@H](C)CC)NC(=O)[C@H](CCCCNC(C)=O)NC(=O)CNC(=O)[C@@H]2CCCN2C(=O)[C@H](CC(C)C)NC1=O [3.2A] ({CH2CO}-WK(Ac)KAILPGK(Ac)ILKTLHIC-NH2; thioether N-17)
Kd (BRD3-BD1): > 10 µM
Kd (BRD2-BD2; [3]): > 10000 nM
Kd (BRD2-BD1; [3]): > 10000 nM
binding to BRD3-BD2 (in words) (BRD3-BD2): strong binding was not observed
Kd (BRD3-BD2; [3]): > 10000 nM
Kd (BRD4-BD2; [3]): > 10000 nM
Kd (BRD4-BD1; [4]): 8.9 ± 20 nM

SMILES: CC[C@H](C)[C@@H]1NC(=O)[C@H](CCCCN)NC(=O)[C@H](CC(C)C)NC(=O)CNC(=O)[C@H](Cc2ccc(O)cc2)NC(=O)[C@H](CCCCNC(C)=O)NC(=O)[C@H](CCCCN)NC(=O)[C@H](Cc2c[nH]c3ccccc23)NC(=O)[C@H](CCC(N)=O)NC(=O)[C@H](CCCCNC(C)=O)NC(=O)[C@H](Cc2c[nH]c3ccccc23)NC(=O)CSC[C@@H](C(N)=O)NC1=O [3.2C] ({CH2CO}-WK(Ac)QWKK(Ac)YGLKIC-NH2; thioether N-12)
selectivity between BD2 and BD1 domains [1]: 10- to 100 fold
Kd ([1]; read-out: affinities for the BD2 domains): 10 to 100 nM
binding to BD1 domains (in words) [2]: did not bind strongly

SMILES: CC(=O)NCCCC[C@@H]1NC(=O)[C@H](Cc2c[nH]c3ccccc23)NC(=O)CSC[C@@H](C(=O)N[C@@H](Cc2c[nH]c3ccccc23)C(=O)N[C@@H](CC(C)C)C(=O)N[C@@H](CCCCNC(C)=O)C(=O)N[C@@H](CCCNC(=N)N)C(=O)N[C@@H](CCCCNC(C)=O)C(=O)N[C@@H](CC(C)C)C(=O)N[C@@H](CC(C)C)C(=O)N[C@@H](CC(C)C)C(=O)N[C@@H](CCCNC(=N)N)C(=O)N[C@@H](CS)C(N)=O)NC(=O)[C@H](Cc2c[nH]c3ccccc23)NC(=O)[C@H](CC(N)=O)NC1=O [4.2A] ({CH2CO}-WK(Ac)NWCWLK(Ac)RK(Ac)LLLRC-NH2; thioether N-5 (inferred))
binding to BRD3-BD1, fold tighter than to BRD4-BD2 (BRD3-BD1): 10 fold
binding to BRD4-BD2, fold tighter than to other BD2 domains (BRD4-BD2): 4- to 8 fold

SMILES: CC[C@H](C)[C@@H]1NC(=O)[C@H](CO)NC(=O)[C@@H]2CCCN2C(=O)[C@H](CCCCNC(C)=O)NC(=O)[C@H](CCCNC(=N)N)NC(=O)[C@H](Cc2c[nH]c3ccccc23)NC(=O)[C@H](CCCCNC(C)=O)NC(=O)[C@H](CC(C)C)NC(=O)[C@H](CCCNC(=N)N)NC(=O)[C@H]([C@@H](C)CC)NC(=O)[C@H]([C@@H](C)O)NC(=O)[C@H](Cc2c[nH]cn2)NC(=O)[C@H](Cc2ccc(O)cc2)NC(=O)[C@H](C)NC(=O)[C@H](Cc2c[nH]c3ccccc23)NC(=O)CSC[C@@H](C(N)=O)NC(=O)[C@H](CO)NC1=O [4.2B] ({CH2CO}-WAYHTIRLK(Ac)WRK(Ac)PSISC-NH2; thioether N-17)
Kd (BRD3-BD1): > 10 µM
Kd (BRD2-BD2; [4]): 2.7 ± 6 nM
selectivity for BD2 domains over BD1 domains (in words) [1]: significant selectivity
Kd (BRD2-BD1; [4]): 22 ± 0.028 nM
Kd (BRD3-BD2; [4]): 16 ± 11 nM
Kd (BRD4-BD2; [4]): 1.1 ± 0.04 nM
Kd (BRD4-BD1; [3]): > 10000 nM

reduction of affinity relative to 3.1B [2]: ~80 fold
SMILES: CC[C@H](C)[C@@H]1NC(=O)[C@H]([C@@H](C)O)NC(=O)[C@H](CCCCN)NC(=O)[C@H](Cc2c[nH]c3ccccc23)NC(=O)CSC[C@@H](C(N)=O)NC(=O)[C@H](CCC(N)=O)NC(=O)[C@H](CCCCNC(C)=O)NC(=O)[C@H]([C@@H](C)O)NC(=O)[C@H](CCCNC(=N)N)NC(=O)[C@H](Cc2c[nH]c3ccccc23)NC(=O)[C@H]([C@@H](C)O)NC(=O)[C@H](CCCCNC(C)=O)NC(=O)CNC(=O)[C@H](C)NC1=O [AcK5→Ala] ({CH2CO}-WKTIAGK(Ac)TWRTK(Ac)QC-NH2; thioether N-14)

reduction of affinity relative to 3.1B [2]: fourfold
SMILES: CC[C@H](C)[C@@H]1NC(=O)[C@H]([C@@H](C)O)NC(=O)[C@H](CCCCN)NC(=O)[C@H](Cc2c[nH]c3ccccc23)NC(=O)CSC[C@@H](C(N)=O)NC(=O)[C@H](CCC(N)=O)NC(=O)[C@H](CCCCNC(C)=O)NC(=O)[C@H]([C@@H](C)O)NC(=O)[C@H](CCCNC(=N)N)NC(=O)[C@H](Cc2c[nH]c3ccccc23)NC(=O)[C@H]([C@@H](C)O)NC(=O)[C@H](C)NC(=O)CNC(=O)[C@H](CCCCNC(C)=O)NC1=O [AcK7→Ala] ({CH2CO}-WKTIK(Ac)GATWRTK(Ac)QC-NH2; thioether N-14)
